[25] = 2'-5' internucleotide linkage (phosphodiester)
Experiments:
[1] = test system: DNA target strand SEQ ID NO 10 (25 base sequence from the initiation codon region of the HIV-1 gag mRNA); test: Thermal melting study, duplex with DNA target strand; type: binding; conditions: for Tm DNA: duplex with DNA SEQ ID NO 10, 10 mM disodium hydrogen phosphate pH 7.5, 100 mM NaCl, 2.0 μM total strands; for Tm lower than duplex of control phosphorothioate oligonucleotide SEQ ID NO 8, DNA target: vs SEQ ID NO 8, DNA SEQ ID NO 10
Method: (§1) Thermal denaturation studies were carried out by mixing MBOs with the DNA or RNA target strands in equimolar ratios in 10 mM disodium hydrogen phosphate, pH 7.5±0.1, 100 mM sodium chloride buffer, heated to 95° C. for 10 min, and allowed to come to room temperature slowly before being stored at 4° C. overnight. The final total concentration of the oligonucleotide strands was 2.0 μM. Spectrophotometric measurements were performed at 260 nm using 1 cm path length quartz cuvettes at a heating rate of 0.5° C./min on a Perkin-Elmer (Norwalk, Conn.) Lambda 2 Specotrometer attached to a thermal controller and a personal computer. Melting temperatures (Tm) taken as the temperature of half-dissociation and were obtained from first derivative plots. Precision in Tm values estimated from variance in two or three repeated experiments was ±0.5° C.

[2] = test system: citrated normal human donor plasma; test: Clotting assay, activated partial thromboplastin time (aPTT); conditions: compared to saline control; for 50% Prolongation of Clotting (aPTT): human plasma; for effect in coagulation assay (in words): up to 100 μg/ml dose
Method: The activated partial thromboplastin time (aPTT) was performed with citrated normal human donor plasma in duplicate on an Electra 1000C (Medical Laboratory Automation, Mount Vernon, N.Y.) according to recommended procedures using Actin FSL (Baxter Dade, Miami, Fla.) and 2.5 mM calcium to initiate clot formation, which was measured photometrically. Normal plasma aPTT values ranged from 27 to 39 sec. Data were calculated as 50% of prolongation as compared to the saline control.

[3] = test system: RNA target strand SEQ ID NO 9 (25 base sequence from the initiation codon region of the HIV-1 gag mRNA); test: Thermal melting study, duplex with RNA target strand; type: binding; conditions: for Tm RNA: duplex with RNA SEQ ID NO 9, 10 mM disodium hydrogen phosphate pH 7.5, 100 mM NaCl, 2.0 μM total strands; for Tm lower than duplex of control phosphorothioate oligonucleotide SEQ ID NO 8, RNA target: vs SEQ ID NO 8, RNA SEQ ID NO 9
Method: as §1

S1 nuclease = biological target: T1, S1 nuclease (Aspergillus oryzae, UniProt P24021); test: S1 nuclease assay; type: in vitro ADME; conditions: 1.4 U, 37° C., pH 5.0
T1 construct: purchased Gibco/BRL
T1 sequence (P24021 21-287): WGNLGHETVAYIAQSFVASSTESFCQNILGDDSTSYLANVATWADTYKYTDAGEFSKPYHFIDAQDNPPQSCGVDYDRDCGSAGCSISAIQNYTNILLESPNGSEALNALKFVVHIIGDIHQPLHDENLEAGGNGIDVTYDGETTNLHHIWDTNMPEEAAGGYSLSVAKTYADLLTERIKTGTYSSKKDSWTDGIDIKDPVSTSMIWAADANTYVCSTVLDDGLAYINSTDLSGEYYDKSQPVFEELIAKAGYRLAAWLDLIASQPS
Method: (§2) For snake venom phosphodiesterase assay, labeled oligonucleotide with cold oligonucleotide in a buffer (10 mM Tris, pH 8.0, 100 mM sodium chloride, and 10 mM magnesium chloride) was incubated with 0.01 U of snake venom phosphodiesterase (Boehringer-Mannheim, Indianapolis, Ind.) at 21° C. (final volume 40 μl). Aliquots were removed at different time intervals for electrophoretic gel analysis. For S1 nuclease assay, reactions were carried out as above but in […] sodium acetate, pH 5.0, 10 mM zinc acetate buffer and with 1.4 U of S1 nuclease (Gibco/BRL) incubated at 37° C. in a final volume of 50 μl. Aliquots were removed at different time intervals for electrophoretic gel analysis. Nuclease reactions were stopped by adding 5 μl of formamide gel loading buffer to each sample and heating at 90° C. for 5 min. All the samples were then run by 20% PAGE (7M urea) and visualized by autoradiography.

[4] = test system: snake venom phosphodiesterase; test: Snake venom phosphodiesterase assay; type: in vitro ADME; conditions: 0.01 U, 21° C.; compared with SEQ ID NO 7
Method: as §2

[5] = Stability in DMEM cell culture medium containing 10% fetal calf serum; type: in vitro ADME; conditions: DMEM with 10% non-heat-inactivated fetal calf serum, 37° C.
Method: Oligonucleotides were labeled at the 5'-end with ^32 P using γ-^32 P-ATP (Amersham) and T4 polynucleotide kinase (Promega). Sambrook et al, Molecular Cloning, supra. Stability of the oligonucleotides in cell culture medium containing 10% fetal calf serum was tested by incubating a small amount of labeled oligonucleotide together with 100 ng of cold oligonucleotide in DMEM cell culture medium (Gibco/BRL, Grand Island, N.Y.) containing 10% non-heat-inactivated fetal calf serum (Gibco/BRL) at 37° C. in a final volume of 40 μl, and aliquots were removed at different times.

HIV-1 = test: Inhibition of HIV-1 replication in cell culture (MT-4 cells, MTT); type: cell-based; conditions: for IC50: 6 days
Method: Oligonucleotides according to the invention were studied for their ability to inhibit HIV-1. HIV-1 inhibition assay was carried out as described previously. Kandimalla et al., Nucleic Acids Res., supra). Briefly, serial dilutions of antisense oligonucleotides were prepared in 50 μl volumes of complete medium (RAMI-1640, 10% fetal bovine serum, 2 mM L-glutamine, 100 U/ml penicillin, […] streptomycin) in triplicate in 96-well plates. Virus diluted to contain a 90% CP dose of virus in 50 μl was added, followed by 100 μl 4×10^5 /ml MT-4 cells in complete medium. The plates were incubated at 37° C. in 5% CO2 for 6 days. MTT dye was added and quantified at A540 and A690 as described. The percent inhibition was calculated by the formula (experimental--virus control)/(medium control--virus control)×100.

Spleen cells (CD1 mouse) = test: In vitro cell proliferation assay ([3H]thymidine); type: cell-based; conditions: at 10 μg/ml, 48 hrs
Method: Cell proliferation assays were carried out as described earlier (Zhao et al., Biochem. Pharmacol 51, 173-182 (1996)). Spleen cells (4-5 week old male CD1 mouse, 20-22 gm, Charles River, Wilmington, Mass.) suspensions were prepared and plated in 96-well dishes at a density of 10^6 cells/ml in a final volume of 100 μl. The cells were incubated at 37° C. after adding 10 μl of oligonucleotides. After 44 hrs incubation, 1 μCi [3H]thymidine (Amersham, Arlington Heights, Ill.) was added and the cells were pulse-labeled for another 4 hrs. The cells were harvested by an automatic cell harvester and the filters were counted by a scintillation counter. All experiments were carried out in triplicate.

[6] = test system: normal human serum complement lysis of sheep red blood cells; test: CH50 hemolytic complement assay; conditions: for 50% Inhibition of Complement Lysis: compared to saline control
Method: A CH50 assay for complement lysis of sheep red blood cells (Colorado Serum Co., Denver, Col.) sensitized with anti-sheep red cell antibody (hemolysin; Diamedix, Miami, Fla.) as previously described (Mayer, In Experimental Immunochemistry, Kabat and Mayer eds., C. C. Thomas, Springfield, pp. 125-131 (1961)), was modified to test 1-200 dilutions of normal human serum interpreted. Hemoglobin release into cell-free supernates was measured spectrophotometrically at 541 nm. Data were calculated as 50% inhibition of lysis compared to saline control.

Substance | Tm DNA [1] [°C] | 50% Prolongation of Clotting (aPTT) [2] | Tm RNA [3] [°C] | IC50 (HIV-1) [µM] | Stimulation Index (Lymphocyte Proliferation) (Spleen cells (CD1 mouse)) | 50% Inhibition of Complement Lysis [6] [µg/mL] | also measured
SEQ ID NO 4: Phosphodiester MBO with three 2'-5' linkages at each end and an additional three in the middle (antisense CUCTCGCACCCAUCTCTCTCCUUCT; phosphodiester, three 2'-5' linkages at each end and three in middle, further chemistry not given here) | 52.8 | > 100.0 µg/mL | 64.5 | – | – | – | ΔTm with the DNA strand ([1]; destabilizing effect, DNA strand): -10.7 °C; effect in coagulation assay (in words) [2]: negligible effect; ΔTm with the RNA strand ([3]; destabilizing effect, RNA strand): -6.0 °C; digestion by S1 nuclease (in words) (S1 nuclease): quickly digested; stability against snake venom phosphodiesterase (in words) [4]: slightly higher stability; stability in serum (in words) [5]: intact up to four hours
SEQ ID NO 5: MBO with nine 2'-5'-linkages; 2'-5'-phosphodiester and 3'-5'-phosphorothioate linkages (antisense CUCTCGCACCCAUCTCTCTCCUUCT; nine 2'-5' phosphodiester linkages, other linkages 3'-5' phosphorothioate, further chemistry not given here) | 43.2 | 115.0 µg/mL | 61.2 | > 0.8 | 1.09 ± 0.05 | – | IC50 (HIV-1; listed as 5): 0.812 µM
SEQ ID NO 2: MBO with three 2'-5'-linkages at each end; 2'-5'-phosphodiester and 3'-5'-phosphorothioate linkages (antisense CUCTCGCACCCATCTCTCTCCUUCT; linkages [25]3 s18 [25]3 (s phosphorothioate, o phosphodiester), sugars by position and methylation of C not given here) | 52.5 | 51.1 µg/mL | 63.3 | 0.0999 | 2.82 ± 0.37 | 59.1 | concentration required to achieve IC50 relative to control SEQ ID NO 8 (HIV-1; HIV-1 replication): four fold higher concentration
SEQ ID NO 3: Phosphorothioate analog of SEQ ID NO 1 (antisense CUCTCGCACCCATCTCTCTCCUUCT; phosphorothioate, chemistry not fully specified) | 51.9 | 58.0 µg/mL | 61.1 | 0.0298 | 4.9 | 95.2 | Tm lower than duplex of control phosphorothioate oligonucleotide SEQ ID NO 8, DNA target [1]: about 4.70 °C; Stimulation Index (Lymphocyte Proliferation) (Spleen cells (CD1 mouse); listed as 3): 4.93 ± 0.15; Tm lower than duplex of control phosphorothioate oligonucleotide SEQ ID NO 8, RNA target [3]: ~2.4 °C
SEQ ID NO 6: Phosphorothioate analog of SEQ ID NO 4, with nine 2'-5' linkages (antisense CUCTCGCACCCAUCTCTCTCCUUCT; all linkages phosphorothioate, nine 2'-5' linkages, further chemistry not given here) | 39.4 | 98.3 µg/mL | 56.4 | – | 0.23 | > 500.0 | Tm lower than duplex of control phosphorothioate oligonucleotide SEQ ID NO 8, DNA target [1]: 17.2 °C; Stimulation Index (Lymphocyte Proliferation) (Spleen cells (CD1 mouse); listed as 6): 0.23 ± 0.04; Tm lower than duplex of control phosphorothioate oligonucleotide SEQ ID NO 8, RNA target [3]: 7.1 °C
SEQ ID NO 8: Control phosphorothioate oligonucleotide containing all 3'-5' linkages (CTCTCGCACCCATCTCTCTCCTTCT; all phosphorothioate, sugars by position and methylation of C not given here) [reference compound] | 56.6 | about 23 μg/ml | 63.5 | 0.0249 | 6.16 | 34.2 | 50% Prolongation of Clotting (aPTT) ([2]; listed as 8): 23.2 µg/mL; Stimulation Index (Lymphocyte Proliferation) (Spleen cells (CD1 mouse); listed as 8): 6.16 ± 0.12; effect on complement hemolytic activity (in words) [6]: inhibited serum complement hemolytic activity
SEQ ID NO 7: Control phosphodiester oligonucleotide containing all 3'-5' linkages (CTCTCGCACCCATCTCTCTCCTTCT; all phosphodiester, sugars by position and methylation of C not given here) [reference compound] | 63.5 | > 100.0 µg/mL | 70.5 | – | 1.10 ± 0.13 | > 500.0 | effect in coagulation assay (in words) [2]: negligible effect; digestion by S1 nuclease (in words) (S1 nuclease): quickly digested; half-life in serum [5]: < 30 min
